One compound from patent US20230270893A1, “GALLIUM-LABELED GASTRIN ANALOGUE AND USE IN A METHOD OF IMAGING CCKB-RECEPTOR-POSITIVE TUMORS OR CANCERS” (DEBIOPHARM INTERNATIONAL S.A., priority 2020, published 2023) can be followed below.

Like-named read-outs stand apart in the source and are kept apart here.

A short description of series [1]: Ex vivo biodistribution study in naïve adult CD1 mice. To be noted: for tissue uptake at 1 h: CD1, mouse, iv, 0.04 ug, total radioactivity; for tissue uptake at 1 h / Retention in stomach: 60 min post-injection. How it is done:
(§1) Ex vivo biodistribution study. Female (FIG. 1A) and male (FIG. 1B) naïve adult CD1 mice (immunocompetent) were injected with [^68Ga]Ga-PPF11N ((0.19±0.04) MBq, 0.04 μg, 1.3 μg/kg). Mice were sacrificed at 5, 15, 30, 60, 120 and 240 min post-injection (N=4 each). A control group of mice of each sex was co-injected with a blocking dose of PPF11N peptide (40 μg, 1.3 mg/kg) and sacrificed at 60 min post-injection. Organs (blood, bone, brain, colon, gonad, kidney, liver, lung, muscle, pancreas, stomach) were weighted and assessed for activity concentration over time. Ex vivo biodistribution in all resected tissues was computed as the percentage of injected dose per gram of tissue (% ID/g).
(§2) Immunocompetent CD1 mice (N=28 males and N=28 females on study, N=3 males and N=3 females spare; males 9 weeks old, females 5 weeks old at delivery) were acclimatized for 7 days, inspected daily and weighed on the day of injection. For each sex, mice were randomly allocated to 7 groups (N=4 mice per group) and each group was injected (bolus i.v. route into a laterial tail vein) with [^68Ga]Ga-PPF11N peptide ((0.19±0.04) MBq in 0.15 mL; (0.039±0.02) μg peptide in non-blocked groups. Following radiolabeling, each product batch was assessed by iTLC and HPLC to ensure the material met the target criteria. For the blocked group, 38±1 μg of peptide was injected. At 5 min, 15 min, 30 min, 1 h, 2 h and 4 h post-injection mice (n=4 per time point for each sex) were sacrificed by cervical dislocation and tissues (blood, bone, brain, colon, gonad, kidney, liver, lung, muscle, pancreas, stomach) were resected, weighed and the radioactivity was counted with a gamma-counter along with calibration standards (dilution series in triplicate). The study design is depicted in the table below.
The activity of each collected tissue was measured in units of counts per min (CPM). Triplicate aliquots of serial dilutions of the radiotracer were also assayed in the gamma counter in order to calculate a conversion factor to units of activity (% ID/g). Measured values were decay corrected and adjusted to account for background radiation

Series [2] addresses T1, CCK2R (Mus musculus, UniProt P56481).
T1 construct: from tissue; host or cells: organs of naive CD1 mice (stomach and others), in vivo injection with ex vivo gamma counting
T1 sequence (P56481 1-453): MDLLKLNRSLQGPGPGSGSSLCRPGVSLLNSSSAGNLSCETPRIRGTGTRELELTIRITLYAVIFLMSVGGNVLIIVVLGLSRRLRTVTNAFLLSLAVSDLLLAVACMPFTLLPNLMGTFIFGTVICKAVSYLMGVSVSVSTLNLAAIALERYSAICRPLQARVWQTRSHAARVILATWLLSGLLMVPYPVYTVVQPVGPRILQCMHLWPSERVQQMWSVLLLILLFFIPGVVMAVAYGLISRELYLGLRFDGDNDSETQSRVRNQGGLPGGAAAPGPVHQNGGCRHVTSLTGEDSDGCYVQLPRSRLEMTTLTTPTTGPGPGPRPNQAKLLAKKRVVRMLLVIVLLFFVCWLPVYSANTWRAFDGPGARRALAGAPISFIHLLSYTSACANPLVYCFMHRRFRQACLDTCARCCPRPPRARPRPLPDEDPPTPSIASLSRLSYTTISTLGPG
Briefly: Peptide blocking experiment (co-injection of blocking dose of PPF11N) in the ex vivo biodistribution study. Also on record: species or system CD1 mice. To be noted: male and female mice, 60 min post-injection, PPF11N 40 μg per mouse. How it is done: as §1, §2
(§3) The activity of each collected tissue was measured in units of counts per min (CPM). […] Measured values were decay corrected and adjusted to account for background radiation

In series [3] the test system is T2, CCK2R.
T2 construct: from tissue; host or cells: organs of naive CD1 mice (stomach and others), in vivo injection with ex vivo gamma counting
The series is described as above. Further details: species or system CD1 mice. To be noted: CD1, stomach, iv, total radioactivity, 60 min post-injection, co-injected PPF11N 40 μg per mouse (1.3 mg/kg), read-out: Concentration in the stomach with peptide blocking dose. The method, then:
as §1, §2, §3

Take `CCCC[C@H](NC(=O)[C@H](Cc1c[nH]c2ccccc12)NC(=O)CNC(=O)[C@H](Cc1ccc(O)cc1)NC(=O)[C@H](C)NC(=O)[C@@H](CCC(=O)O)NC(=O)[C@@H](CCC(=O)O)NC(=O)[C@@H](CCC(=O)O)NC(=O)[C@@H](CCC(=O)O)NC(=O)[C@@H](CCC(=O)O)NC(=O)[C@@H](CCC(=O)O)NC(=O)CN1CCN(CC(=O)O)CCN(CC(=O)O)CCN(CC(=O)O)CC1)C(=O)N[C@@H](CC(=O)O)C(=O)N[C@@H](Cc1ccccc1)C(N)=O` [^68Ga-PPF11N, ^68Ga-Y-DGlu-DGlu-DGlu-DGlu-DGlu-DGlu-Ala-Tyr-Gly-Trp-Nle-Asp-Phe-NH2, metal not drawn]: the tissue uptake at 1 h in series [1] (blood, female mice, i.v., 0.04 μg peptide, read-out: Blood concentration) worked out at 0.4 ± 0.12 %ID/g; in series [1] (blood, male mice, i.v., 0.04 μg peptide, read-out: Blood concentration), 0.46 ± 0.35 %ID/g; in series [1] (kidney, female mice, read-out: Retention in kidneys), 2.98 ± 0.53 %ID/g; in series [1] (kidney, male mice, read-out: Retention in kidneys), 3.38 ± 0.67 %ID/g; in series [1] (muscle, female mice, read-out: Activity concentration in muscle), 0.16 ± 0.09 %ID/g; in series [1] (muscle, male mice, read-out: Activity concentration in muscle), 0.1 ± 0.03 %ID/g. The tissue uptake at 1 h in series [1] (stomach, female mice, read-out: Retention in stomach) amounted to 1.71 ± 0.56 %ID/g; in series [1] (stomach, male mice, read-out: Retention in stomach), 1.93 ± 0.18 %ID/g; with CCK2R [3] (female mice) it was 0.19 ± 0.02 %ID/g; in the series on CCK2R [3] (male mice) it was 0.32 ± 0.07 %ID/g. Further, the results for the Retention in stomach in series [1] (female mice) and in series [1] (male mice) were 1.71±0.56 % ID/g and 1.93±0.18 % ID/g, respectively. For the same compound, the Clearance from organs entry in series [1] (male and female mice, 5 to 240 min post-injection) is “rapid clearance from all organs except for kidneys and stomach”. Further, the “Effect of peptide blocking dose on kidney exposure” value on CCK2R [2] is recorded as “unable to reduce kidney exposure”.
